How the values were obtained:
[1] = test system: Caco-2 cell monolayer; assay: DON-induced impairment of Caco-2 cell monolayer integrity (TEER, lucifer yellow flux); format: cell-based, human; conditions: for effect on DON-induced loss of epithelial barrier integrity (TEER, LY flux), in words: 24 h pretreatment (GLs 0.75 wt. %; 2′-FL 1 mg/ml), then DON 4.2 μM 24 h
Procedure: Beta1,3′-galactosyl-lactose (beta3′-GL), beta1,4′-galactosyllactose (beta4′-GL) and beta1,6′-galactosyl-lactose (beta6′-GL) were obtained from Carbosynth (Berkshire, UK). Alpha1,3′-galactosyl-lactose (alpha3′-GL) was obtained from Elicityl (Crolles, France). Purified deoxydivalenol (DON) (D0156; Sigma Aldrich, St Luis, Mo., USA) was dissolved in pure ethanol and stored at −20° C. Human epithelial colorectal adenocarcinoma (Caco-2) cells were obtained from American […] (Code HTB-37) (Manasse, Va., USA, passage 90-102).
Caco-2 cells were used according to established methods. In brief: cells were cultured in Dulbecco's modified Eagle medium (DMEM) and seeded at a density of 0.3×10^5 cells into 0.3 cm^2 high pore density (0.4 μm) inserts with a polyethylene terephthalate membrane (BD Biosciences, Franklin Lakes, N.J., USA) placed in a 24-well plate. The Caco-2 cells were maintained in a humidified atmosphere of 95 air and 5% CO2 at 37° C.
Caco-2 cell monolayers were thus grown in a transwell system, which is a model for intestinal barrier function. The monolayers were pretreated for 24 h with different GLs, including beta3′-GL, alpha3′-GL, beta4′-GL and beta6′-GL in a concentration of 0.75 wt. % of the GL, before being exposed to the fungal toxin deoxynivalenol (DON), which is a trigger and model compound to impair intestinal barrier. DON was diluted to a final concentration of 4.2 μM in complete cell medium and added to the apical side as well as to the basolateral side of the transwell inserts. […] Incubation with DON was 24 h.
Measurements of the transepithelial electrical resistance (TEER) and lucifer yellow (LY) permeability were conducted to investigate barrier integrity. For TEER measurements a Millicel-ERS voltohmmeter connected to a pair of chopsticks electrodes was used to measure the TEER values. Results are expressed as a percentage of the initial value. For paracellular tracer flux assay the membrane impermeable lucifer yellow (LY) (Sigma, St Luis, Mo., USA) was added in a concentration of 16 μg/ml to the apical compartment in the transwell plate for 4 h, and the paracellular flux was determined by measuring the fluorescence intensity in the basolateral compartment with a spectrophotofluorimeter (FLUOstar Optima, BMG Labtech, Offenburg, Germany) set at excitation and emission wavelengths of 410 and 520 nm, respectively. Release of interleukin-8 (IL-8 or CXCL8), which is a typical marker for inflammation, was quantified in the medium of the apical side and the basolateral side of the Caco-2 transwell inserts in response to the treatments. CXCL8 concentrations were measured by using the human IL-8 ELISA assay (BD Biosciences, Pharmingem, San Diego, Calif., USA) according to manufacturer's instructions. For more details on materials and methods see Akbari et al, 2016, Eur J Nutr. 56(5):1919-1930.

[2] = test system: human peripheral blood mononuclear cells (PBMCs); assay: PBMC cell activity (WST-1); format: cell-based; conditions: after 24 h; non-stimulated and CD3/CD28 stimulated conditions
Procedure: (§1) Isolation of PBMC from healthy donors: Human peripheral blood mononuclear cells (PBMC) from healthy donors were isolated from buffy coats (Sanquin, Amsterdam, the Netherlands). PBMC were obtained by centrifugation using Leucosep tubes (Greiner Bio-One). PBMC were collected and washed in PBS (Gibco, Thermo Fisher Technologies)+2% heat-inactivated FCS (Invitrogen), followed by hypotonic lysis of erythrocytes with sterile lysis buffer (0.15 M NH4Cl, 0.01 M KHCO3 and 0.1 mM EDTA, pH of 7.4 at 4° C., all from Merck, Darmstadt, Germany). After lysis, the PBMC were resuspended in freezing medium (70% RPMI 1640 medium (Gibco, Thermo Fisher Technologies) supplemented with 10% heat-inactivated FCS and 100 U/ml penicillin-streptomycin, 20% heat-inactivated FCS and 10% DMSO (Sigma)) and cryopreserved.
(§2) PBMC activation model: PBMC (0.2·10^6 cell/well) were cultured in 96-well flat bottom plates (Corning). For 24 hours the cells were pre-incubated with 2′-FL (Jennewein), 3′-GL (0-0.3% w/v; Carbosynth) or sodium butyrate (0.2 mM; Sigma Aldrich) and combinations thereof. Subsequently, the cells were CD3/CD28-activated (Pelicluster CD3 and Pelicluster CD28, Sanquin) for an additional 24 hours. After incubation, IFNγ was measured by ELISA in the supernatants (see below). To determine cell activity after stimulation, PBMC were incubated with cell proliferation reagent WST-1 (10 μl; Roche) and/or 10% Triton (5 μl; negative control). After 3 hours, absorbance was measured at OD450 nm and OD650 nm and cell activity was calculated according to manufacturer's instructions.

[3] = test system: human PBMC, CD3/CD28 stimulated; assay: Cytokine production of CD3/CD28 stimulated PBMC; format: cell-based; conditions: for CCL17 levels, in words / levels of IL-4 and IL-13 as compared to control, in words: CD3/CD28 stimulated PBMC, pre-incubation; for Relative level of CCL17, Mean (s.e.) / Relative level of IL-4, Mean (s.e.) / Relative level of IL-13, Mean (s.e.): CD3/CD28 stimulated, 24 h pre-incubation, 0.2 wt % 2′-FL, 0.1 wt % 3′-GL, blanc = 1, observed
Procedure: as §1, §2
Cytokine production of PBMC: PBMC were incubated with indicated reagents. After incubation, the supernatants were collected and IL2, IL6, IL10, IL13, IL21, TNFα, IFNγ, MIF, CCL1, CCL13, CCL17, CCL20, CCL22 and CXCL8-11 levels were measured by conducting a validated multiplex immunoassay based on Luminex technology (xMAP, Luminex Austin Tex. USA). Acquisition was conducted with the Biorad FlexMAP3D (Biorad laboratories, Hercules USA) in combination with xPONENT software version 4.2 (Luminex). Data was analyzed by 5-parametric curve fitting using Bio-Plex Manager software, version 6.1.1 (Biorad).
After PBMC stimulation, cell culture supernatants were collected, after which cytokine responses were measured in order to test immune responsiveness of the cells. The levels of cytokines measured in stimulated conditions were corrected for the (low) levels of the cytokines measured in non-stimulated conditions. In addition, since each donor is reacting in its own efficiency onto the T cell stimulus, we calculated the individual index of cytokine response by dividing the intervention induced response by the basal stimulated response.
Subsequently, in order to test the direct effect of specific compounds on PBMC activity, the cells were activated with CD3/CD28 for 24 hours after a pre-incubated for 24 h with either 2′-FL, 3′-GL and combinations thereof. In addition, since each donor is reacting in its own efficiency onto the T cell stimulus, the individual index of cytokine response was calculated by dividing the intervention induced response by the basal stimulated response (the blanc is set at 1). In this way the intervention within 10 different donors has been studied.

[4] = Caco-2 monolayer, DON 4.2 μM, 2′-FL 1 mg/ml

C[C@@H]1O[C@@H](O[C@H]2[C@H](O[C@H]3[C@H](O)[C@@H](O)C(O)O[C@@H]3CO)O[C@H](CO)[C@H](O)[C@@H]2O)[C@@H](O)[C@H](O)[C@@H]1O (stereo partly drawn) [2′-FL, α-L-Fuc-(1→2)-β-D-Gal-(1→4)-D-Glc]
effect on DON-induced loss of epithelial barrier integrity (TEER, LY flux), in words [1]: statistically significantly prevent the DON induced reduction in TEER and increase in LYF
Lucifer yellow flux [1, 4]: 446.4 (8.302)^∧ ng/ml (cm^2xh)
TEER (% of initial value) Mean (s.e.) [1, 4]: 42.79 (0.844)^∧∧ % of initial value
Immune cell activity as measured by WST, in words [2]: significantly increased
CCL17 levels, in words [3]: no significant effect
levels of IL-4 and IL-13 as compared to control, in words [3]: had no effect
Relative level of CCL17, Mean (s.e.) [3]: 1.061 (0.117)
Relative level of IL-4, Mean (s.e.) [3]: 0.9887 (0.0517)
Relative level of IL-13, Mean (s.e.) [3]: 1.039 (0.080)

Gal (beta 1-3)-Gal (beta 1-4)-Glc [3′-GL]
effect on DON-induced loss of epithelial barrier integrity (TEER, LY flux), in words [1]: prevented the DON-induced loss of epithelial barrier integrity
Immune cell activity as measured by WST, in words [2]: decrease in activation
CCL17 levels, in words [3]: no significant effect
levels of IL-4 and IL-13 as compared to control, in words [3]: a decrease was detected
Relative level of CCL17, Mean (s.e.) [3]: 0.6212 (0.0531)
Relative level of IL-4, Mean (s.e.) [3]: 0.5825 (0.0413)
Relative level of IL-13, Mean (s.e.) [3]: 0.5472 (0.0723)

— patent US20220110985A1, “NUTRITIONAL COMPOSITION COMPRISING 2'FUCOSYLLACTOSE AND 3'GALACTOSYLLACTOSE” (N.V. Nutricia, priority 2019, published 2022)
